Assay results taken from patent publication US9861625B2, “Methods and compositions for treating cancer through inhibition of PI3K” (Duke University, priority 2014, dated 2018).

Key:
[1] = test system: Ly8 cells and normal human B cells (tonsil lymphocytes); assay: Toxicity in Ly8 cells compared to normal B cells (alamar blue); assay type: cell-based; settings: alone and in combination; 36 hours
Description: BEZ235 was tested in combination with the PAK1 inhibitor IPA-3 using Calcusyn software by applying the Chou-Talalay method. BJAB, HBL1, HBL2, HT, Ly8, and Riva cells were tested, as were normal tonsil lymphocytes. Ly8 and tonsillar lymphocytes were cultured in 96-well plates (approximately 500,000 cells/ml) for 36 hours in Iscove's modified Dulbecco's medium (IMDM) with 20% human AB serum. Viability was assessed with alamar blue dye and normalized to the lowest concentration of BEZ235 in each group.
Finally, BEZ235 and IPA-3 were administered separately and concurrently to normal human B cells to ascertain a therapeutic window between normal and malignant cells.

[2] = test system: nine different cells lines; assay: IPA-3 as a single agent in nine cell lines; assay type: cell-based
Description: The 3-(4,5-dimethylthiazol-2-yl)-2,5-diphenyltetrazolium bromide (MTT) cell viability assay was used to determine cell viability in response to drug treatment. Five replicates per concentration tested were carried out in serial dilutions with a total of ten concentrations with a 50% reduction in drug concentration per dilution for each plate. A total of 15 μl of MTT reagent was added to each drug-treated well and incubated for three hours in 37° C. Detergent was added to each drug-treated well and incubated overnight at room temperature without exposure to light. Absorbance was measured at 570 nm using a plate reader from Tecan Group. The IC50 concentration was determined using the publicly available ED50 plus v1.0 software program.
Small-molecule inhibition of PAK1 with IPA-3 achieved consistent results. PAK1 inhibition with IPA-3 was tested in nine different cells lines, both individually and in combination with BEZ235.

Oc1ccc2ccccc2c1SSc1c(O)ccc2ccccc12 [IPA-3]
toxicity in Ly8 cells as compared to normal B cells [1]: selective toxicity | cell death at 10 μmol/L, upper end of the range ([2]; 10 μmol/L): no cell death | IC50 ([2]; nine cell lines, read-out: observed IC50 values, lower end of range): ≥ 697 nM
